# Laboratory results reported in PMC11073428, “The activity of pyrazolo[4,3-e][1,2,4]triazine and pyrazolo[4,3-e]tetrazolo[1,5-b][1,2,4]triazine sulphonamide derivatives in monolayer and spheroid breast cancer cell cultures” (Journal of Enzyme Inhibition and Medicinal Chemistry, 2024).
# Columns and labels:
# [1] = system: Bax in MCF-7 cells; experiment: Anti-Bax antibody flow cytometry, MCF-7; type: cell-based, human; details: 24 h
# Experimental: (§1) To evaluate the molecular mechanism of induction of apoptosis of tested compounds, the level of p53, NF-κB, mTOR, Bax, and beclin-1 was measured using appropriate antibody according to the manufacturer’s instruction. In brief, tryspinised cells were centrifuged, then supernatant was discarded, and cells were suspended in 4% FA (formaldehyde). Prepared samples were incubated 15 min at RT. Following incubation, the 2.5 mL PBS was added to each sample and centrifuged. Then, supernatant was discarded, and cells were resuspended in 90% ice-cold methanol to perform permeabilisation and left for 1 h in ice. To remove methanol, cells were rinsed with excess PBS by centrifugation. Following centrifugation, the supernatant was discarded. Then, cells were resuspended in 100 µL of appropriate diluted (1:100 in PBS) antibody conjugate (p53 (7F5) Rabbit mAb – Alexa Fluor 488 Conjugate #5429 Cell Signalling Technology, Danvers, MA; NF-κB p65 (D14E12) XP Rabbit mAb – Alexa Fluor 647 Conjugate #8801 Cell Signalling Technology, Danvers, MA; mTOR (7C10) Rabbit mAB – Alexa Fluor 647 #5048 Cell Signalling Technology, Danvers, MA; FITC Anti-Bax antibody (T22-A) #ab139543, Abcam, Cambridge, UK) and incubated 1 h in the dark at RT. Afterwards, cells were washed by centrifugation in 2 mL of incubation buffer. Finally, supernatant was removed and 300 µL PBS was added to each sample and pipetted. The analysis was performed by flow cytometry (BD FACSCanto II, Becton Dickinson Biosciences Systems, San Jose, CA) using FACSDiva software ver. 6.1.3.
# [2] = system: MDA-MB-231 breast cancer cells; experiment: Autophagy Assay, Red, flow cytometry, MDA-MB-231; type: cell-based, human
# Experimental: (§2) The effect of novel compound 3b at 0.25 µM and 0.5 µM concentration on the induction of autophagy in MCF-7 and MDA-MB-231 pre-treated 1 h with or not autophagy inhibitor 3-MA for 1 h (3-methyladenine, Sigma-Aldrich, St. Louis, MO) at 1 mM concentration[29] was assessed by ICT’s Autophagy Assay, Red using a flow cytometer. The test was performed as previously. Briefly, cells were washed with PBS and suspended in 490 µL of PBS. To each probe, 10 µL of diluted Autophagy Probe, Red solution was added. Prepared samples were incubated at 37 °C for 60 min. Following incubation, cells were suspended in diluted cellular assay buffer and centrifuged. Then, supernatant was removed, and cells were resuspended in diluted cellular assay buffer and centrifuged again. This step was repeated three times. Finally, cell pellet was resuspended in 0.5 mL of diluted cellular assay buffer. The analysis was performed with a flow cytometer (excitation/emission 590 nm/620 nm).
# [3] = system: NF-κB in MDA-MB-231 cells; experiment: Anti-NF-κB antibody flow cytometry, MDA-MB-231; type: cell-based, human; details: 24 h
# Experimental: as §1, with “The analysis was performed by flow cytometry (BD FACSCanto II, Becton Dickinson Biosciences Systems, San Jose, CA) using FACSDiva software ver. 6.1.3.” left out
# [4] = system: MDA-MB-231 breast cancer cells; experiment: Apoptosis, annexin V-FITC/PI flow cytometry, MDA-MB-231; type: cell-based, human; details: 24 h
# Experimental: The analysis was performed using flow cytometry Apoptosis Detection Kit II (BD Biosciences, San Diego, CA) as described previously.
# [5] = system: caspase 9 in MDA-MB-231 cells; experiment: Activity of caspase 9, MDA-MB-231; type: cell-based, human; details: MDA-MB-231, 0.5 µM, 24 h
# Experimental: MCF-7 and MDA-MB-231 cells were plated in six-well plates at density 1 × 10^6 and cultured in DMEM for 24 h. […] Then to identify the involvement of caspase family in inducing apoptosis, cells were pre-treated with Z-VAD-FMK (100 µM) 2 h before adding compounds[28]. The activation of caspases 9, 10, and 3/7 was detected as described before.
# [6] = system: MCF-7 breast cancer cells; experiment: Autophagy Assay, Red, flow cytometry, MCF-7; type: cell-based, human
# Experimental: as §2
# [7] = system: ROS in MDA-MB-231 cells; experiment: Total ROS activity, flow cytometry, MDA-MB-231; type: cell-based, human; details: for cells with ROS: 24 h
# Experimental: In brief, cells were washed two times with cold PBS solution and incubated in a solution of ROS Green dye in Assay Buffer and incubated for 1 h in optimal cell growth parameters, protected from light. After incubation, cells were washed with assay buffer. Subsequently, fluorescence emission intensities at 490 nm excitation and 520 nm emission were recorded in 500 μL assay buffer using flow cytometer BD FACSCanto II flow cytometer and FACSDiva software (BD Biosciences Systems, San Jose, CA).
# [8] = system: NF-κB in MCF-7 cells; experiment: Anti-NF-κB antibody flow cytometry, MCF-7; type: cell-based, human; details: 24 h, control 97.2 ± 0.6%
# Experimental: as §1, with “The analysis was performed by flow cytometry (BD FACSCanto II, Becton Dickinson Biosciences Systems, San Jose, CA) using FACSDiva software ver. 6.1.3.” left out
# [9] = system: MCF-7 breast cancer cells; experiment: MTT viability assay, MCF-7
# Experimental: Following 24-h incubation with tested compounds, the medium was discarded from the cell cultures. Then, into each well with cells was added 1 mL of PBS and 50 µL of MTT solution (5 mg per mL). Cells were incubated at 37 °C and 5% CO2 in humidified atmosphere for a defined time appropriate for each cell line. After incubation, the solution above the cells was removed and obtained purple formazan crystals were dissolved in 1 mL DMSO. The absorbance was read at OD = 570 nm on Evolution 201 Spectrophotometer (Thermo Scientific, Waltham, MA).
# [10] = system: MDA-MB-231 spheroids; experiment: 3D spheroid culture, MDA-MB-231; type: cell-based, human; details: 0.25 µM and 0.5 µM
# Experimental: The 3D cell culture was carried out with 6-Well Bio-Assembler Kit in accordance with the manufacturer’s instructions (Greiner Bio-One GmbH, Frickenhausen, Germany). First, MCF-7 and MDA-MB-231 were cultured in 2D using procedure and supplied to 80% confluency and treated with nanoshuttle at concentration of 1 µL/10 000 cell and incubated overnight. Following incubation, the medium was removed, and the cells were detached by trypsin–EDTA solution and resuspended in DMEM. The cells were counted using Scepter 2.0 Handheld Automated Cell Counter (Merck, Darmstadt, Germany) and plated at the concentration 1 × 10^6 cells per well in six-well plate. Then, cells were gently tilted in the flask to evenly distribute the nanoparticle and incubated (37 °C, 5% CO2, 95–98% humidity) for 1 h with magnet on the top of the plate. The cells self-assemble to spheroids. The obtained 3D cell culture was incubated until analysis.
# The visualisation of the morphological changes in 3D cell culture of MCF-7 and MDA-MB-231 was evaluated using microscope (Nikon Eclipse Ti, Tokyo, Japan).
# The mean ± standard deviation (SD) for all data is presented. One-way and two-way analysis of variance (ANOVA) was conducted followed by Dunnett’s test. GraphPad 8.0.1 Prism software (GraphPad Software, San Diego, CA) was used for calculation. The analysis of spheroids area was carried out using ImageJ software from the NIH (Bethesda, MD).
# [11] = system: mTOR in MDA-MB-231 cells; experiment: Anti-mTOR antibody flow cytometry, MDA-MB-231; type: cell-based, human; details: MDA-MB-231, 0.25 µM and 0.5 µM, 24 h
# Experimental: as §1, with “The analysis was performed by flow cytometry (BD FACSCanto II, Becton Dickinson Biosciences Systems, San Jose, CA) using FACSDiva software ver. 6.1.3.” left out
compound,measurement,setting,value
"Cc1nn(-c2ccc(S(=O)(=O)N[C@@H](CO)Cc3ccccc3)cc2)c2nn3nnnc3nc12 [Compound 3b, (R)-N-(1-hydroxy-3-phenylpropan-2-yl)-4-(7-methyl-5H-pyrazolo[4,3-e]tetrazolo[1,5-b][1,2,4]triazin-6-yl)benzenesulfonamide]",cells with active Bax,"[1]; MCF-7, 0.25 µM",46.4 ± 6.6%
same,cells with active Bax,"[1]; MCF-7, higher concentration (0.5 µM)",63.0 ± 1.6%
same,autophagic cells (rate of autophagosomes),"[2]; MDA-MB-231, 0.5 µM, 24 h",47.1 ± 0.6%
same,autophagic cells in presence of 3-MA,"[2]; MDA-MB-231, 3b 0.5 µM + 3-MA (1 mM, 1 h pre-treatment)",25.9 ± 4.7%
same,cells with active NF-κB,"[3]; MDA-MB-231, 0.25 µM",94.8 ± 0.6%
same,cells with active NF-κB,"[3]; MDA-MB-231, 0.5 µM",89.6 ± 4.1%
same,apoptotic cells,"[4]; MDA-MB-231, 0.25 µM",11.8 ± 1.3%
same,early and late apoptotic cells,"[4]; MDA-MB-231, 0.5 µM",29.5 ± 0.9%
same,cells with active caspase 9,[5],55.9 ± 1.2%
same,autophagic cells,"[6]; MCF-7, 0.5 µM, 24 h",30 ± 2.1%
same,autophagic cells with 3-MA relative to 3b alone (in words),"[6]; MCF-7, 3b 0.5 µM + 3MA vs 3b 0.5 µM",one and a half times less autophagic cells
same,cells with ROS,"[7]; MDA-MB-231, 0.25 µM",7.0 ± 0.6%
same,increase of ROS level compared to control,"[7]; MDA-MB-231, 0.5 µM",four
same,cells with ROS,"[7]; MDA-MB-231, 0.5 µM",9.4 ± 0.7%
same,cells with active NF-κB,"[8]; MCF-7, 0.25 µM",25.5 ± 4.5%
same,cells with active NF-κB,"[8]; MCF-7, 0.5 µM",19.8 ± 4.4%
same,IC50,"[9]; Homo sapiens, MCF7, 24 h, read-out: Cytotoxicity IC50 MCF-7",250 ± 70 nM
same,"times stronger than the corresponding sulphonyl derivative (2a or 2b), MCF-7","[9]; ratio of cytotoxicity, 3a vs 2a, 3b vs 2b",22 times
same,effect on spheroid formation (in words),[10],slower formation of spheroids compared to untreated cells
same,effect on cells with active mTOR (in words),[11],decrease in the number of cells with active mTOR
